Assays:
[1] = test system: HBV viral production in AD38 cells; experiment: Viral load production in AD38 cells by quantitative PCR of the HBV core sequence in supernatant; type: cell-based; settings: Hepatitis B virus, 144 h; 10 μM compound, 6 days at 37° C., viral load in supernatant compared against DMSO control wells; read-out: AD38 Viral Load (CpAM/DMSO %) at 10 μM
Outline: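 AD38 cells seeded at 50,000/well, treated 6 days at 37° C with compound added as 10× solution in 10% DMSO. HBV core sequence in clarified supernatant quantified by TaqMan qPCR against known standards; viral load compared with DMSO control wells.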

AD38 cells = experiment: Viability of AD38 cells (Promega CellTiter-Glo) at the end of compound treatment; type: cell-based; settings: 10 μM compound, 6 days, luminescence normalized against DMSO control wells (controls being 100%)
Outline: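 AD38 cells seeded at 50,000/well received compound from a 10× solution in 10% DMSO and were incubated 6 days at 37° C. Viability was then read by CellTiter-Glo luminescence in tetracycline-free medium with 2% FBS and 1% DMSO, normalized to DMSO control wells (100%) and reported as percent viability.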

## O=C(Nc1nccs1)c1ccc2c(c1)NC(=O)c1ccccc1S2(=O)=O [Compound 1634]
[1]
  activity at 10 µM: 45%
AD38 cells
  AD38 Viability Normalized Result (CPAM/DMSO %) at 10 μM: 125%

## O=C(NCc1nncs1)c1ccc2c(c1)NC(=O)c1ccccc1S2 [Compound 1571]
[1]
  activity at 10 µM: 35%
AD38 cells
  AD38 Viability Normalized Result (CPAM/DMSO %) at 10 μM: 117%

## O=C(NCCc1cncnc1)c1ccc2c(c1)NC(=O)c1cc(F)ccc1S2 [Compound 1312]
[1]
  activity at 10 µM: 5%
AD38 cells
  AD38 Viability Normalized Result (CPAM/DMSO %) at 10 μM: 83%

## O=C(Nc1cccc(-c2ccccn2)c1)c1ccc2c(c1)NC(=O)c1cc(F)ccc1S2 [Compound 1385]
[1]
  activity at 10 µM: 26%
AD38 cells
  AD38 Viability Normalized Result (CPAM/DMSO %) at 10 μM: 51%

## O=C(NCc1cnco1)c1ccc2c(c1)NC(=O)c1ccc(F)cc1S2 [Compound 1349]
[1]
  activity at 10 µM: 12%
AD38 cells
  AD38 Viability Normalized Result (CPAM/DMSO %) at 10 μM: 102%

## O=C1Nc2cc(S(=O)(=O)N3CCCC3)ccc2Sc2ccccc21 [Compound 1432]
[1]
  activity at 10 µM: 79%
AD38 cells
  AD38 Viability Normalized Result (CPAM/DMSO %) at 10 μM: 91%

## O=C1Nc2c(cc(F)c(C(=O)NCc3cccnc3)c2F)Sc2ccccc21 [Compound 1546]
[1]
  activity at 10 µM: 65%
AD38 cells
  AD38 Viability Normalized Result (CPAM/DMSO %) at 10 μM: 89%

## CN1c2ccc(C(=O)NCc3cccnc3)cc2NC(=O)c2ccccc21 [Compound 1499]
[1]
  activity at 10 µM: 2%
AD38 cells
  AD38 Viability Normalized Result (CPAM/DMSO %) at 10 μM: 84%

## Cc1c(C(=O)NCCc2ccc(S(=O)(=O)N(C)C)cc2)ccc2c1NC(=O)c1ccccc1S2 [Compound 1517]
[1]
  activity at 10 µM: 2%
AD38 cells
  AD38 Viability Normalized Result (CPAM/DMSO %) at 10 μM: 78%

## O=C1Nc2cc(CNCCc3ccccc3)ccc2Sc2ccccc21 [Compound 1357, 8-((phenethylamino)methyl) dibenzo [b,f] [1,4] thiazepin-11(10H)-one]
[1]
  activity at 10 µM: 39%
AD38 cells
  AD38 Viability Normalized Result (CPAM/DMSO %) at 10 μM: 115%

## O=C(NCC12CC3CC(CC(C3)C1)C2)c1ccc2c(c1)NC(=O)c1ccccc1S2 [Compound 1189]
[1]
  activity at 10 µM: 1%
AD38 cells
  AD38 Viability Normalized Result (CPAM/DMSO %) at 10 μM: 85%

## O=C(NCCc1ccc(F)cc1)c1ccc2c(c1)NC(=O)c1ccccc1S2 [Compound 1113]
[1]
  activity at 10 µM: 1%
AD38 cells
  AD38 Viability Normalized Result (CPAM/DMSO %) at 10 μM: 99%

## CN1c2ccc(C(=O)NCCc3cccnc3)cc2NC(=O)c2ccccc21 [Compound 1549]
[1]
  activity at 10 µM: 7%
AD38 cells
  AD38 Viability Normalized Result (CPAM/DMSO %) at 10 μM: 109%

## COc1ccc(CNC(=O)c2ccc3c(c2)NC(=O)c2ccccc2S3)cc1 [Compound 1161]
[1]
  activity at 10 µM: 1%
AD38 cells
  AD38 Viability Normalized Result (CPAM/DMSO %) at 10 μM: 99%

## O=C(NCCc1cncs1)c1ccc2c(c1)NC(=O)c1c(F)cccc1S2 [Compound 1598]
[1]
  activity at 10 µM: 61%
AD38 cells
  AD38 Viability Normalized Result (CPAM/DMSO %) at 10 μM: 93%

## CN1c2ccc(C(=O)NCc3cnco3)cc2NC(=O)c2ccccc21 [Compound 1547]
[1]
  activity at 10 µM: 16%
AD38 cells
  AD38 Viability Normalized Result (CPAM/DMSO %) at 10 μM: 90%

## Cc1ccc2c(c1)C(=O)Nc1cc(C(=O)NCCC3CCCCC3)ccc1S2 [Compound 1274]
[1]
  activity at 10 µM: 11%
AD38 cells
  AD38 Viability Normalized Result (CPAM/DMSO %) at 10 μM: 88%

## O=C(NCc1ccc(F)cc1)c1ccc2c(c1)NC(=O)c1ccccc1S2(=O)=O [Compound 1623]
[1]
  activity at 10 µM: 1%
AD38 cells
  AD38 Viability Normalized Result (CPAM/DMSO %) at 10 μM: 128%

## O=C(NCCc1ccc(-c2ccccc2)cc1)c1ccc2c(c1)NC(=O)c1ccccc1N2Cc1ccccc1 [Compound 1483]
[1]
  activity at 10 µM: 65%
AD38 cells
  AD38 Viability Normalized Result (CPAM/DMSO %) at 10 μM: 98%

## O=C(Nc1cccc(-c2ccccc2)c1)c1ccc2c(c1)NC(=O)c1ccccc1S2(=O)=O [Compound 1458]
[1]
  activity at 10 µM: 12%
AD38 cells
  AD38 Viability Normalized Result (CPAM/DMSO %) at 10 μM: 49%

## O=C(NCc1cnco1)c1ccc2c(c1)NC(=O)c1ccccc1S2 [Compound 1264]
[1]
  activity at 10 µM: 8%
AD38 cells
  AD38 Viability Normalized Result (CPAM/DMSO %) at 10 μM: 104%

## CCc1ccc(CCNC(=O)c2ccc3c(c2)NC(=O)c2ccccc2S3)cc1 [Compound 1185]
[1]
  activity at 10 µM: 1%
AD38 cells
  AD38 Viability Normalized Result (CPAM/DMSO %) at 10 μM: 0%

## COC(=O)c1cccc(-c2cccc(NC(=O)c3ccc4c(c3)NC(=O)c3cc(F)ccc3S4)c2)c1 [Compound 1422, Methyl 3′-(2-fluoro-11-oxo-10, 11-dihydrodibenzo [b,f] [1,4]thiazepine-8-carboxamido)-[1, 1′-biphenyl]-3-carboxylate]
[1]
  activity at 10 µM: 64%
AD38 cells
  AD38 Viability Normalized Result (CPAM/DMSO %) at 10 μM: 95%

## O=C(Nc1cncc(F)c1)c1ccc2c(c1)NC(=O)c1cc(F)ccc1S2 [Compound 1337]
[1]
  activity at 10 µM: 77%
AD38 cells
  AD38 Viability Normalized Result (CPAM/DMSO %) at 10 μM: 91%

## O=C(NCCC1CCCCC1)c1ccc2c(c1)NC(=O)c1ccncc1S2 [Compound 1237]
[1]
  activity at 10 µM: 4%
AD38 cells
  AD38 Viability Normalized Result (CPAM/DMSO %) at 10 μM: 66%

## CN1C(=O)c2ccccc2Sc2ccc(C(=O)NCc3cccnc3)cc21 [Compound 1553]
[1]
  activity at 10 µM: 86%
AD38 cells
  AD38 Viability Normalized Result (CPAM/DMSO %) at 10 μM: 93%

## CCN1c2ccc(C(=O)NCc3cnco3)cc2NC(=O)c2ccccc21 [Compound 1564]
[1]
  activity at 10 µM: 10%
AD38 cells
  AD38 Viability Normalized Result (CPAM/DMSO %) at 10 μM: 119%

## O=C(O)c1ccc2c(c1)Sc1ccc(C(=O)NCCC3CCCCC3)cc1NC2=O [Compound 1282, 8-((2-cyclohexylethyl)carbamoyl)-11-oxo-10, 11-dihydrodibenzo [b, f] [1,4] thiazepine-3-carboxylic acid]
[1]
  activity at 10 µM: 102%
AD38 cells
  AD38 Viability Normalized Result (CPAM/DMSO %) at 10 μM: 105%

## O=C(NCCc1cccc(F)c1)c1ccc2c(c1)NC(=O)c1ccccc1S2 [Compound 1130]
[1]
  activity at 10 µM: 2%
AD38 cells
  AD38 Viability Normalized Result (CPAM/DMSO %) at 10 μM: 101%

## O=C(Nc1ccc(Cl)cn1)c1ccc2c(c1)NC(=O)c1cc(F)ccc1S2 [Compound 1338]
[1]
  activity at 10 µM: 70%
AD38 cells
  AD38 Viability Normalized Result (CPAM/DMSO %) at 10 μM: 118%

## O=C(NCc1ccccc1N1CCCC1)c1ccc2c(c1)NC(=O)c1ccccc1S2 [Compound 1240]
[1]
  activity at 10 µM: 26%
AD38 cells
  AD38 Viability Normalized Result (CPAM/DMSO %) at 10 μM: 92%

## O=C(Nc1cccc(-c2ccncn2)c1)c1ccc2c(c1)NC(=O)c1cc(F)ccc1S2 [Compound 1451]
[1]
  activity at 10 µM: 30%
AD38 cells
  AD38 Viability Normalized Result (CPAM/DMSO %) at 10 μM: 92%

## O=C(NCCC1CCCCC1)c1ccc2c(c1)NC(=O)c1ccc(F)cc1S2 [Compound 1234]
[1]
  activity at 10 µM: 3%
AD38 cells
  AD38 Viability Normalized Result (CPAM/DMSO %) at 10 μM: 79%

## O=C(Nc1nc2ccc(Cl)cc2s1)c1ccc2c(c1)NC(=O)c1cc(F)ccc1S2 [Compound 1340]
[1]
  activity at 10 µM: 64%
AD38 cells
  AD38 Viability Normalized Result (CPAM/DMSO %) at 10 μM: 116%

## O=C(NC(Cc1nnc[nH]1)c1ccccc1)c1ccc2c(c1)NC(=O)c1ccccc1S2 (stereo not shown) [Compound 1552]
[1]
  activity at 10 µM: 64%
AD38 cells
  AD38 Viability Normalized Result (CPAM/DMSO %) at 10 μM: 93%

## Cc1c(C(=O)Nc2cccc(-c3ccccc3)c2)ccc2c1NC(=O)c1ccccc1S2 [Compound 1496]
[1]
  activity at 10 µM: 2%
AD38 cells
  AD38 Viability Normalized Result (CPAM/DMSO %) at 10 μM: 18%

## NC(=O)CSc1nnc(CCNC(=O)c2ccc3c(c2)NC(=O)c2ccccc2S3)o1 [Compound 1582]
[1]
  activity at 10 µM: 8%
AD38 cells
  AD38 Viability Normalized Result (CPAM/DMSO %) at 10 μM: 112%

## O=C(NCCc1ccc(O)cc1)c1ccc2c(c1)NC(=O)c1ccccc1S2 [Compound 1115]
[1]
  activity at 10 µM: 1%
AD38 cells
  AD38 Viability Normalized Result (CPAM/DMSO %) at 10 μM: 106%

## Cc1ccc(CCNC(=O)c2ccc3c(c2)NC(=O)c2ccccc2S3)cc1 [Compound 1184]
[1]
  activity at 10 µM: 1%
AD38 cells
  AD38 Viability Normalized Result (CPAM/DMSO %) at 10 μM: 0%

## Cc1c(C(=O)NCCc2cccnc2)ccc2c1NC(=O)c1ccccc1S2 [Compound 1467]
[1]
  activity at 10 µM: 1%
AD38 cells
  AD38 Viability Normalized Result (CPAM/DMSO %) at 10 μM: 92%

## O=C(O)c1cccc(-c2cccc(NC(=O)c3ccc4c(c3)NC(=O)c3cc(F)ccc3S4)c2)c1 [Compound 1421, 3′-(2-fluoro-11-oxo-10, 11-dihydrodibenzo [b,f] [1,4]thiazepine-8-carboxamido)-[1, 1′-biphenyl]-3-carboxylic acid]
[1]
  activity at 10 µM: 78%
AD38 cells
  AD38 Viability Normalized Result (CPAM/DMSO %) at 10 μM: 95%

## O=C(NCCCCC1CCCCC1)c1ccc2c(c1)NC(=O)c1ccccc1S2 [Compound 1150]
[1]
  activity at 10 µM: 1%
AD38 cells
  AD38 Viability Normalized Result (CPAM/DMSO %) at 10 μM: 22%

## CCc1ccc(CNC(=O)c2ccc3c(c2)NC(=O)c2ccccc2S3)cc1 [Compound 1188]
[1]
  activity at 10 µM: 4%
AD38 cells
  AD38 Viability Normalized Result (CPAM/DMSO %) at 10 μM: 83%

## O=C(Nc1ccncc1)c1ccc2c(c1)NC(=O)c1ccccc1N2Cc1ccccc1 [Compound 1494]
[1]
  activity at 10 µM: 115%
AD38 cells
  AD38 Viability Normalized Result (CPAM/DMSO %) at 10 μM: 60%

## O=C1Nc2cc(S(=O)(=O)NCCc3ccccc3)ccc2Sc2ccccc21 [Compound 1289, 11-oxo-N-phenethyl-10, 11-dihydrodibenzo [b,f] [1,4] thiazepine-8-sulfonamide]
[1]
  activity at 10 µM: 40%
AD38 cells
  AD38 Viability Normalized Result (CPAM/DMSO %) at 10 μM: 96%

## CN1c2ccc(C(=O)NCc3cncnc3)cc2NC(=O)c2ccccc21 [Compound 1520]
[1]
  activity at 10 µM: 1%
AD38 cells
  AD38 Viability Normalized Result (CPAM/DMSO %) at 10 μM: 81%

## CCN1c2ccc(C(=O)NCCc3ccccn3)cc2NC(=O)c2ccccc21 [Compound 1522]
[1]
  activity at 10 µM: 1%
AD38 cells
  AD38 Viability Normalized Result (CPAM/DMSO %) at 10 μM: 82%

## O=C(NCCCc1ccccc1)c1ccc2c(c1)NC(=O)c1ccccc1S2 [Compound 1108]
[1]
  activity at 10 µM: 1%
AD38 cells
  AD38 Viability Normalized Result (CPAM/DMSO %) at 10 μM: 105%

## O=C(NCCc1ccc(-c2ccccc2)cc1)c1ccc2c(c1)NC(=O)c1ccc(F)cc1S2 [Compound 1371]
[1]
  activity at 10 µM: 6%
AD38 cells
  AD38 Viability Normalized Result (CPAM/DMSO %) at 10 μM: 94%

## O=C(NCCc1ccc(-c2ccccc2)cc1)c1ccc2c(c1)NC(=O)c1c(F)cccc1S2 [Compound 1465]
[1]
  activity at 10 µM: 39%
AD38 cells
  AD38 Viability Normalized Result (CPAM/DMSO %) at 10 μM: 106%

Reference: patent US10183936B2, “Hepatitis B core protein allosteric modulators” (priority 2014, dated 2019)
